{
  "source": "paper PMC12263422",
  "about": "“Cryo-EM structure of the human THIK-1 K2P K^+ channel reveals a lower Y gate regulated by lipids and anesthetics” (Nature Structural & Molecular Biology, 2025)",
  "target": "T1, THIK-2*-Y292A (Homo sapiens, UniProt Q9HB15, R11A/R12A/R14A/R15A/R16A/Y292A)",
  "T1 construct": "expressed in transfected cells; host or cells: Xenopus oocytes (mRNA injection)",
  "T1 sequence (Q9HB15 1-430 R11A/R12A/R14A/R15A/R16A/Y292A)": "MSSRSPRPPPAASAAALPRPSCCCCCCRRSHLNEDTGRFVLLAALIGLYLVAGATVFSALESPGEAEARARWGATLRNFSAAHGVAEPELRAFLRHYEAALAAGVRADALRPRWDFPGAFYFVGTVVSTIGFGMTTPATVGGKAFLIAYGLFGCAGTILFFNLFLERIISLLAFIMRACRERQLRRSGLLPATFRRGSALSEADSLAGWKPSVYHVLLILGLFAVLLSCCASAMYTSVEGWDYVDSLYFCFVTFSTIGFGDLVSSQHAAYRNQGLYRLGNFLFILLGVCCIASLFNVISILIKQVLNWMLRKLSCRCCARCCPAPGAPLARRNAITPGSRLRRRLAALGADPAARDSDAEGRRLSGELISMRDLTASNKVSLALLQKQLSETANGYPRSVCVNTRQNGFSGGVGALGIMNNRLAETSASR",
  "experiment": "Inside-out excised patch recordings, oocytes, THIK-2* Y292A",
  "assay_type": "cell-based",
  "description": "Human K2P13.1 THIK-1 (GenBank accession number: NM_022054) and human K2P12.1 THIK-2 (NM_022055.1) were used in this study. For functional expression studies, the respective K^+ channel subtype coding sequences were subcloned into the oocyte expression vector pSGEM or the dual-purpose expression vector pFAW[41] and verified by sequencing. All mutant channels were obtained by site-directed mutagenesis and verified by sequencing. To increase surface expression and macroscopic currents, measurements of THIK-2 channels used a mutated ER retention motif, (R11A R12A R14A R15A R16A; THIK-2*)[20]. Vector DNA was linearized with NheI or MluI, and mRNA was synthesized in vitro using the SP6 or T7 AmpliCap Max High Yield Message Maker Kit (Cellscript, USA) or HiScribe T7 ARCA mRNA Kit (New England Biolabs).\nTwo-electrode voltage–clamp (TEVC) studies were performed in Xenopus oocytes. All animal use conformed to the Guide for the Care and Use of Laboratory Animals (NIH Publication 85–23), and all experiments using Xenopus toads were approved by the local ethics panels. Oocytes were stored at 17 °C in ND96 recording solution composed of (in mM): 96 NaCl, 2 KCl, 1.8 CaCl2, 1 MgCl2, 5 HEPES (pH 7.5 adjusted with NaOH and HCl), supplemented with Na-pyruvate (275 mg L^–1), theophylline (90 mg L^–1) and gentamicin (50 mg L^–1). Oocytes were injected with 1 ng mRNA for WT or mutant channels, and were incubated for 24–48 h at 17 °C. Two-electrode voltage clamp recordings were then performed as previously described[42],[43]. For macroscopic patch–clamp measurements, oocytes were obtained as described above incubated at 17 °C in a solution containing (mM): 54 NaCl, 30 KCl, 2.4 NaHCO3, 0.82 MgSO4 ×7 H2O, 0.41 CaCl2, 0.33 Ca(NO3)2 ×4 H2O and 7.5 TRIS (pH 7.4 adjusted with NaOH and HCl) for 1–4 days before use. Excised patch recordings in inside-out configuration conditions were performed at room temperature. Patch pipettes were made from thick-walled borosilicate glass GB 200TF-8P (Science Products), had resistances of 0.2–0.5 MΩ (tip diameter, 10–25 µm) and filled with a pipette solution (in mM): 120 KCl, 10 HEPES and 3.6 CaCl2 (pH 7.4 adjusted with KOH and HCl). Intracellular bath solutions and compounds were applied to the cytoplasmic side of excised patches for the various K^+ channels through a gravity flow multi-barrel pipette system. The intracellular solution had the following composition (in mM): 120 KCl, 10 HEPES, 2 EGTA and 1 pyrophosphate (pH adjusted with KOH and HCl). Currents were recorded with an EPC10 amplifier (HEKA Electronics) and sampled at 10 kHz or higher, with filtering set to 3 kHz (–3 dB) or higher, as appropriate for sampling rate. For measurements of GPCR activation, whole-cell currents were recorded for THIK-1 in transiently transfected HEK-293 cells. Cells were stimulated by a ramp protocol between −100 and +60 mV (holding potential, −80 mV). The pipette solution was composed of (in mM): 140 KCl, 2 MgCl2, 1 CaCl2, 2.5 EGTA and 10 HEPES (pH 7.3 adjusted with KOH and HCl). The extracellular bath solution had the following composition (in mM): 135 NaCl, 5 KCl, 2 MgCl2, 2 CaCl2, 10 glucose and 10 HEPES pH (pH 7.3 adjusted with NaOH and HCl). Oxotremorine M (Oxo-M) was added to extracellular bath solution to obtain the final concentration. Single-channel currents were recorded with an Axopatch 200B amplifier through a Digidata 1440A digitizer (Molecular Devices). Data were filtered at 2 kHz and recorded at a 200-kHz sampling rate with the program Clampex (Molecular Devices). Pipette solution and bath solution for cell-attached recordings contained (in mM): 140 KCl, 2 MgCl2, 1 CaCl2 and 10 HEPES (pH 7.4 adjusted with KOH and HCl). For inside-out recordings, the bath solution contained (in mM): 140 KCl, 2 MgCl2, 1 CaCl2 and 10 HEPES (pH 7.2 adjusted with KOH and HCl). All experiments were conducted at room temperature. […]",
  "note": "“And” between values parts separate entries of the source, which are not always exact repeats. Identical values can stand only once.",
  "data": [
    {"molecule": "CCCCC[N+](CCCCC)(CCCCC)CCCCC", "note": "[TPenA, tetrapentylammonium]", "values": [
      {"measurement": "Normalized currents", "setting": "0.1 µM TPenA", "result": 1.00},
      {"measurement": "Normalized currents", "setting": "1 µM TPenA", "result": 0.93},
      {"measurement": "Normalized currents", "setting": "10 µM TPenA", "result": 0.74},
      {"measurement": "Normalized currents", "setting": "100 µM TPenA", "result": 0.42},
      {"measurement": "Normalized currents", "setting": "1000 µM TPenA", "result": 0.09},
      {"measurement": "Normalized currents", "setting": "5000 µM TPenA", "result": 0.07},
      {"measurement": "τ of 1 mM TPenA block", "setting": "individual recordings", "result": "0.090 s and 0.080 s and 0.060 s and 0.150 s and 0.070 s"},
      {"measurement": "τ of 1 mM TPenA release", "setting": "individual recordings", "result": "0.680 s and 0.860 s and 0.410 s and 0.480 s and 1.100 s and 0.400 s"},
      {"measurement": "τ of 1 mM TPenA block", "setting": "mean", "result": 0.09, "unit": "s"},
      {"measurement": "τ of 1 mM TPenA release", "setting": "mean", "result": 0.66, "unit": "s"}
    ]}
  ]
}
